Here are results for ten molecules from PubChem BioAssay (NCI).

Some test systems named below: A549 NSCLC; COLO 205 colon; HCC-2998 colon; HS 578T breast; MDA-MB-231 breast; NCI-H460 lung; OVCAR-3 ovarian; OVCAR-5 ovarian; SN12C renal; SW-620 colon.
What all share (assay): DTP human tumour cell line panel, 48 h

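The compound was tested at five concentrations on cells cultured in 96-well plates, with a 48-hour exposure period. Here, GI50 denotes the concentration required for 50% inhibition of growth. At the TGI there is no net growth.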 Where only a bound is given, the exact number is not on record here.

Take `N#C/C(N)=C(\C#N)N=CN`: the TGI in the experiment with A549 NSCLC, in the experiment with COLO 205 colon, with HCC-2998 colon, in the experiment with HS 578T breast, in the experiment with MDA-MB-231 breast and with NCI-H460 lung was more than 100 µM throughout. Also, the TGI in the experiment on OVCAR-3 ovarian, in the experiment on OVCAR-5 ovarian, in the experiment with SN12C renal and in the experiment on SW-620 colon was more than 100 µM in each case.
For the molecule `C=C(CC[C@@H](C)[C@H]1CC[C@@]2(C)C3=C(CC[C@]12C)[C@@]1(C)CC[C@H](O)[C@@H](C)C1CC3)C(C)C` (stereo not given in full), the TGI in the experiment with A549 NSCLC worked out at 2.32 µM; with COLO 205 colon it was 2.41 µM; in the experiment on HCC-2998 colon, 2.7 µM; with HS 578T breast, 3.13 µM; with MDA-MB-231 breast, 2.74 µM; in the experiment on NCI-H460 lung, 2.09 µM. The TGI stood at 3.59 µM in the experiment on OVCAR-3 ovarian, 2.67 µM with OVCAR-5 ovarian, 2.72 µM with SN12C renal and 3.44 µM in the experiment on SW-620 colon.
With `O=S1(=O)N(CCNc2nccc(-c3c(-c4cccc(O)c4)nc4sccn34)n2)CCN1Cc1ccccc1`, the GI50 in the experiment with A549 NSCLC is 12.5 µM; in the experiment with COLO 205 colon, 0.621 µM; in the experiment on HCC-2998 colon, 14.2 µM; in the experiment with HS 578T breast it was 2.78 µM; with MDA-MB-231 breast it was 3.06 µM; with NCI-H460 lung, 3.45 µM. For the same molecule, the GI50 is 6.23 µM in the experiment on OVCAR-3 ovarian, 29.8 µM in the experiment with OVCAR-5 ovarian, 9.5 µM in the experiment on SN12C renal and 7.87 µM in the experiment on SW-620 colon. In addition, the TGI in the experiment with A549 NSCLC is more than 50 µM; in the experiment on COLO 205 colon, 32.3 µM; in the experiment with HCC-2998 colon it was 39.8 µM; in the experiment with HS 578T breast it was 16.6 µM; in the experiment on MDA-MB-231 breast, 26.4 µM; in the experiment on NCI-H460 lung, 17.1 µM. For the same molecule, the TGI in the experiment with OVCAR-3 ovarian, in the experiment with OVCAR-5 ovarian, with SN12C renal and in the experiment on SW-620 colon was more than 50 µM each time.
As to `CC1=CC(=O)N(n2c(Cc3ccccc3)n[nH]c2=O)C1=O`, the TGI in the experiment on A549 NSCLC, in the experiment on COLO 205 colon, in the experiment with HCC-2998 colon, with HS 578T breast, in the experiment on MDA-MB-231 breast and in the experiment on NCI-H460 lung was more than 100 µM each time. The TGI in the experiment with OVCAR-3 ovarian, in the experiment with OVCAR-5 ovarian, with SN12C renal and with SW-620 colon was more than 100 µM each time.
Turning to `CNC(=O)N1CN(c2ccccc2)C2(CCN(CCCC3(c4ccc(F)cc4)OCCO3)CC2)C1=O`, the TGI in the experiment on A549 NSCLC, with COLO 205 colon, in the experiment on HCC-2998 colon, in the experiment on HS 578T breast, with MDA-MB-231 breast and in the experiment on NCI-H460 lung was more than 100 µM each time. Besides, the TGI in the experiment on OVCAR-3 ovarian, in the experiment with OVCAR-5 ovarian, with SN12C renal and with SW-620 colon was more than 100 µM in each case.
Turning to `CC(=NNC(=S)Nc1ccc(C)cc1)c1cccc(C(C)=NNC(=S)Nc2ccc(C)cc2)n1`, the TGI with A549 NSCLC is more than 100 µM; in the experiment on COLO 205 colon, 43.8 µM; with HCC-2998 colon it was more than 100 µM; with HS 578T breast it was more than 100 µM; in the experiment on MDA-MB-231 breast, more than 100 µM; in the experiment with NCI-H460 lung, more than 100 µM. Further, the TGI in the experiment with OVCAR-3 ovarian was 14.3 µM; with OVCAR-5 ovarian, more than 100 µM; in the experiment with SN12C renal, more than 100 µM; in the experiment on SW-620 colon, 59.8 µM.
On to `Cc1ccc(NC(=S)N/N=C(/c2ccccc2)c2ccccn2)cc1`, for which the TGI in the experiment with A549 NSCLC was 15.7 µM; in the experiment on COLO 205 colon, 2.89 µM; with HCC-2998 colon it was 21 µM; with HS 578T breast it was 81.8 µM; with MDA-MB-231 breast it was 20.1 µM; with NCI-H460 lung, 7.05 µM. In addition, the TGI stood at 12.5 µM in the experiment on OVCAR-3 ovarian, 2.07 µM in the experiment with OVCAR-5 ovarian, 10.1 µM in the experiment with SN12C renal and 20.9 µM with SW-620 colon.
Regarding `Cc1ccc2c(c1)C1(C)OC(C=CC1=O)O2` (stereo not given), the TGI in the experiment with A549 NSCLC was 10.1 µM; in the experiment with COLO 205 colon it was 1.43 µM; with HCC-2998 colon, 8.15 µM; in the experiment with HS 578T breast, more than 26.6 µM; in the experiment with MDA-MB-231 breast it was 0.745 µM; in the experiment with NCI-H460 lung it was 6.03 µM. Further, the TGI with OVCAR-3 ovarian was determined as 1.16 µM; in the experiment with OVCAR-5 ovarian it was 4.46 µM; in the experiment with SN12C renal, 0.862 µM; in the experiment on SW-620 colon, 1.05 µM.
In the case of `CC(C)(C)c1ccc(-c2nc3ccc(Cl)cc3c(=O)o2)cc1`, the TGI in the experiment on A549 NSCLC is 53 µM; with COLO 205 colon it was 39.9 µM; in the experiment on HCC-2998 colon, 27.6 µM; in the experiment on HS 578T breast, more than 100 µM; in the experiment on MDA-MB-231 breast, 18.6 µM; in the experiment with NCI-H460 lung, more than 100 µM. For the same molecule, the TGI in the experiment with OVCAR-3 ovarian was 34.6 µM; in the experiment with OVCAR-5 ovarian, 80.9 µM; in the experiment on SN12C renal, more than 100 µM; in the experiment on SW-620 colon it was more than 100 µM.
In the case of `CNc1nc2n(CCO)c(-c3ccccc3)c(-c3ccccc3)nc-2c(=O)n1`, the TGI in the experiment on A549 NSCLC, in the experiment on COLO 205 colon, in the experiment on HCC-2998 colon, in the experiment with HS 578T breast, with MDA-MB-231 breast and in the experiment on NCI-H460 lung was more than 50 µM throughout. The TGI with OVCAR-3 ovarian, with OVCAR-5 ovarian, in the experiment with SN12C renal and in the experiment with SW-620 colon was more than 50 µM each time.
